Experimental data taken from patent US7855290B2, “Pyridine derivatives and pyrimidine derivatives (3)” (Eisai R&D Management Co., Ltd., priority 2005, dated 2010).

How the values were obtained:
[1] = system: Human umbilical vein endothelial cells (HUVECs); assay: Inhibitory activity against the growth of vascular endothelial cells stimulated with hepatocyte growth factor; assay type: cell-based; settings: HUVEC, HGF stimulated, third day, Cell Counting Kit-8, read-out: IC50 (cell proliferation activity)
Procedure: Human umbilical vein endothelial cells (HUVECs) were isolated according to the reported method (Shin Seikagaku Jikken Koza, “Cell culturing techniques”, p 197-202), and then cultured in a 5% CO2 incubator (37° C.) using EGM-2 medium (purchased from Clonetics) until the cells reached confluency.
HUVECs were suspended in a serum-free medium for endothelial cell culture (SFM, purchased from GIBCO RBL) containing 2% FBS. The cell suspension (2×10^4 cells/ml) was put in a cell culturing 96-well plate (purchased from NUNC, Production No. 167008) at 0.1 ml/well, and then cultured in a 5% CO2 incubator (37° C.) overnight. After the culture, each well was supplied with 50 μl of the test substance diluted with a 2% FBS-containing serum-free medium for endothelial cell culture and 50 μl of HGF (purchased from R&D) diluted at a concentration of 120 ng/ml with a 2% FBS-containing serum-free medium for endothelial cell culture, followed by culturing in a 5% CO2 incubator (37° C.). On the third day after the addition of the test substance, each well was supplied with 10 μl of Cell Counting Kit-8 (purchased from DOJINDO, Production No. 343-07623), and then the plate was incubated in a 5% CO2 incubator (37° C.) for about 2 hours. After the incubation, using a Plate Reader MTP-500 (Corona Electric), the absorbance of each well was determined at a measurement wavelength of 450 nm and a reference wavelength of 660 nm. While defining the absorbance of a well supplied with HGF and no test substance as 100% cell proliferation activity and the absorbance of the well supplied with no test substance and no HGF as 0% cell proliferation activity, the cell proliferation activity ratio (%) was calculated for each cell.

[2] = system: Human gastric cancer cells (MKN-45); assay: Inhibitory activity against the tumor growth of human gastric cancer cells (MKN-45) transplanted in nude mice; assay type: in vivo, BALB/c (nu/nu) mice; settings: orally twice every day, tumor volume at fifth day, relative to control group
Procedure: Human gastric cancer cells (MNK-45) were suspended in HBSS (purchased from GIBCO BRL). The cell suspension (5×10^7 cells/ml) was transplanted under the right flank skin of seven-week-old female BALB/c (nu/nu) mice at a volume of 0.1 ml. When tumor volume of the site transplanted with MNK-45 cells grew to 100-200 mm^3, mice were grouped so that the groups might be equalized in average tumor volume. The test substance was suspended in 0.5% methylcellulose, a mixed solution of hydrochloric acid and glucose (0.1N hydrochloric acid:5% glucose=1:9) or a mixed solution of dimethyl sulfoxide-Tween-glucose (dimethyl sulfoxide:Tween 80:5% glucose (containing equimolar hydrochloric acid to the test substance)=7:13:80), were administered orally to the mice twice every day. The tumor volumes were determined at the fifth day after the initiation of the administration of the test substances. The major axis and the minor axis of tumor were measured by a caliper to calculate ½×(major axis×minor axis×minor axis) for the tumor volume. The experiment was conducted using 10 mice in the control group (solvent-administered group) and 5 mice in test substance-administered group. The ratio in tumor volume of the group for administrating the test substance relative to that of the control group was defined as a tumor proliferation rate (%).

Row | Compound | IC50 [1] [nM] | Tumor proliferation rate (%) ([2]; Dose 30 mg/kg/time) | Tumor proliferation rate (%) ([2]; Dose 100 mg/kg/time)
1 | CN1CC(N2CCN(C(=O)Nc3cc(Oc4ccc(NC(=O)C5(C(=O)Nc6ccc(F)cc6)CC5)c(F)c4)ccn3)CC2)C1 [Example 17] | 17 | – | –
2 | CN(C)C1CN(C2CCN(C(=O)Nc3cc(Oc4ccc(NC(=O)C5(C(=O)Nc6ccc(F)cc6)CC5)cc4F)ccn3)CC2)C1 [Example 21, N-[4-({2-[({4-[3-(Dimethylamino)azetidin-1-yl]piperidin-1-yl}carbonyl)amino]pyridin-4-yl}oxy)-3-fluorophenyl]-N′-(4-fluorophenyl)cyclopropane-1,1-dicarboxamide] | 24 | – | –
3 | CN(C)C1CN(C2CCN(C(=O)Nc3cc(Oc4ccc(NC(=O)C5(C(=O)Nc6ccc(F)cc6)CC5)c(F)c4)ccn3)CC2)C1 [Example 14, N-[4-({2-[({4-[3-(Dimethylamino)azetidin-1-yl]piperidin-1-yl}carbonyl)amino]pyridin-4-yl}oxy)-2-fluorophenyl]-N′-(4-fluorophenyl)cyclopropane-1,1-dicarboxamide] | 23 | – | –
4 | O=C(Nc1cc(Oc2ccc(NC(=O)C3(C(=O)Nc4ccc(F)cc4)CC3)cc2F)ccn1)N1CCC(N2CCC2)CC1 [Example 11, N-{4-[(2-{[(4-Azetidin-1-ylpiperidin-1-yl)carbonyl]amino}pyridin-4-yl)oxy]-3-fluorophenyl}-N′-(4-fluorophenyl)cyclopropane-1,1-dicarboxamide] | 33 | – | –
5 | CN1CCC(N(C)C(=O)Nc2cc(Oc3ccc(NC(=O)C4(C(=O)Nc5ccc(F)cc5)CC4)c(F)c3)ccn2)CC1 [Example 3, N-(2-Fluoro-4-{[2-({[methyl(1-methylpiperidin-4-yl)amino]carbonyl}amino)pyridin-4-yl]oxy}phenyl)-N′-(4-fluorophenyl)cyclopropane-1,1-dicarboxamide] | 13 | – | –
6 | CN(C)CCN1CCN(C(=O)Nc2cc(Oc3ccc(NC(=O)C4(C(=O)Nc5ccc(F)cc5)CC4)cc3F)ccn2)CC1 [Example 7, N-[4-({2-[({4-[2-(Dimethylamino)ethyl]piperazin-1-yl}carbonyl)amino]pyridin-4-yl}oxy)-3-fluorophenyl]-N′-(4-fluorophenyl)cyclopropane-1,1-dicarboxamide] | 18 | – | –
7 | CN1CCC(N(C)C(=O)Nc2cc(Oc3ccc(NC(=O)C4(C(=O)Nc5ccc(F)cc5)CC4)cc3)ccn2)CC1 [Example 12] | 23 | 73.9 | 27.6
8 | O=C(Nc1cc(Oc2ccc(NC(=O)C3(C(=O)Nc4ccc(F)cc4)CC3)c(F)c2)ccn1)N1CCC(N2CCC2)CC1 [Example 9, N-{4-[(2-{[(4-Azetidin-1-ylpiperidin-1-yl)carbonyl]amino}pyridin-4-yl)oxy]-2-fluorophenyl}-N′-(4-fluorophenyl)cyclopropane-1,1-dicarboxamide] | 25 | – | –
9 | CN1CCC(N(C)C(=O)Nc2cc(Oc3ccc(NC(=O)C4(C(=O)Nc5ccc(F)cc5)CC4)cc3F)ccn2)CC1 [Example 1, N-(3-Fluoro-4-{[2-({[methyl(1-methylpiperidin-4-yl)amino]carbonyl}amino)pyridin-4-yl]oxy}phenyl)-N′-(4-fluorophenyl)cyclopropane-1.1-dicarboxamide] | 4.6 | – | –
10 | CN(C)CCN1CCN(C(=O)Nc2cc(Oc3ccc(NC(=O)C4(C(=O)Nc5ccc(F)cc5)CC4)c(F)c3)ccn2)CC1 [Example 2, N-[4-({2-[({4-[2-(Dimethylamino)ethyl]piperazin-1-yl}carbonyl)amino]pyridin-4-yl}oxy)-2-fluorophenyl]-N′-(4-fluorophenyl)cyclopropane-1,1-dicarboxamide] | 18 | 73.3 | 27.5
11 | CN(C)CC1CCN(C(=O)Nc2cc(Oc3ccc(NC(=O)C4(C(=O)Nc5ccc(F)cc5)CC4)c(F)c3)ccn2)CC1 [Example 8, N-[4-({2-[({4-[(Dimethylamino)methyl]piperidin-1-yl}carbonyl)amino]pyridin-4-yl}oxy)-2-fluorophenyl]-N′-(4-fluorophenyl)cyclopropane-1,1-dicarboxamide] | – | 53 | 23.3
